# According to patent publication US5516790A, “Synthesis and application of alkyl-substituted dibenzofurans as antitumorigenic agents” (Texas A&M University System Technology Licensing Office, priority 1994, dated 1996):
# Experiments:
# [1] = tested on: estrogen receptor; test: Uterine and hepatic estrogen receptor levels (literature); type: in vivo, rat; settings: in comparison to control test animals, rats and mice
# [2] = tested on: AHH and EROD induction; settings: previous studies; cited from earlier work
smiles,measurement,setting,value
"Cc1cc(Cl)cc2c1oc1cc(Cl)cc(Cl)c12 [MCDF, 6-methyl 1,3,8-trichlorodibenzofuran]",nuclear and cytosolic hepatic and uterine estrogen receptors,[1],decreases
same,antagonist to the activities of TCDD,[2],antagonist
